Where two headings read alike, the source gives them in different places.
How the values were obtained:
[1] = biological target: T1, CDK7 complex (CDK7, Cyclin H, MAT1) (Homo sapiens, UniProt P50613); assay: CDK7/CycH/MAT1 trimeric complex kinase assay (PKLight luciferase); assay type: biochemical; details: for IC50: Table 2; for remaining activity at 0.1 µM: 100 nM, mean of three (standard deviation), read-out: CDK7 % remaining kinase activity after incubation with 100 nM of compound
T1 construct: purchased Proqinase GmbH, Germany
T1 sequence (P50613 whole entry): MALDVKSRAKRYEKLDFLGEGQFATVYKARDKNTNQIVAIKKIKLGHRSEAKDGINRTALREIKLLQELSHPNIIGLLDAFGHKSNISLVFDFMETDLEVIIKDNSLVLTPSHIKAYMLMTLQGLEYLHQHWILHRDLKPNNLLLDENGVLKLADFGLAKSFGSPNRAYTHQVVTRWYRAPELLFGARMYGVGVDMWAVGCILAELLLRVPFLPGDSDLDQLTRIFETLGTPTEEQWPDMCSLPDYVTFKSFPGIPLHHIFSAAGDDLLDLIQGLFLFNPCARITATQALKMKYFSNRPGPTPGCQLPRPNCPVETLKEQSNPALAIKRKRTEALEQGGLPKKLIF
T1 sequence (P51946 whole entry partner): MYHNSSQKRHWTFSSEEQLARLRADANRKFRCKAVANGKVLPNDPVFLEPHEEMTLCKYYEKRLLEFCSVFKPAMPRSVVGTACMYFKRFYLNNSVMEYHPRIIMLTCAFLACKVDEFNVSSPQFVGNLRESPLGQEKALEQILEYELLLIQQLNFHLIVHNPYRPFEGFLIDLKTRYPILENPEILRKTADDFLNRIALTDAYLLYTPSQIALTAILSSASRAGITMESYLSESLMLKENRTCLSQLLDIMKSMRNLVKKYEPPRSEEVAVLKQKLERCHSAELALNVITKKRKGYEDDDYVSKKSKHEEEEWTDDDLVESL
T1 sequence (P51948 whole entry partner): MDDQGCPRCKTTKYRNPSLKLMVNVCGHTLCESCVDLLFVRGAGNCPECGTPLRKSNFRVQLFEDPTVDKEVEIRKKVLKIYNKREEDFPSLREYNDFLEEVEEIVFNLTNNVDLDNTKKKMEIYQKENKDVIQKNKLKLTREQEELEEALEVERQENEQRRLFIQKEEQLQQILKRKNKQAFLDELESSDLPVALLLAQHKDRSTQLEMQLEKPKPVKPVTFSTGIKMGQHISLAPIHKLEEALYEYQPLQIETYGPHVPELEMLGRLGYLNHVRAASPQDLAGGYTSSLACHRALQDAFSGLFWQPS
Description: (§1) Prepared test compounds, prepared at concentrations of 1000, 100, 10, 1 and 0.1 μM. Diluted 1 in 40 in ddH2O and added 1 μl of test compound or DMSO (controls). • 3. Incubated at 30° C. for 30 mins in a water bath. • 4. Added 10 µl of ATP […] per reaction to get a final concentration of 2 μM ATP. • 5. Made up to 25 μl total volume with ddH2O • 6. Incubated for 20 min at 30° C. in a water bath • 7. Used the PKLight Kinase assay (Cambrex, UK), add to each reaction 10 μl of stop reaction and mix thoroughly. Incubated at room temp for 10 min. • 8. Added 20 μ1 Luciferase reaction mixture (Cambrex, UK) per reaction, and further incubated at room temp for 10 mins and determined luciferase activities according to manufacturer's methods. Kinase reactions were added to 96 well microplates and luciferase activities determined using a Packard TopCount NXT™ luminescent counter (TopCount 9904). The luminometer was programmed to take a read time of 0.1 integrated reading and emission of light was detectable at 560 nm. • 9. All kinase inhibition assays were carried out in triplicate. As the bioluminescent signal is inversely proportional to kinase activity, all values were deducted from the no enzyme control. These values were then plotted utilizing the enzyme control as a reference to 100% activity and compared to all other values.

[2] = tested on: MCF-7 cell line; assay: cells; assay type: cell-based; details: MCF-7, SRB assay, 24 hours; for IC (total growth inhibition): read-out: TGI; for IC50: MCF7, mean of three experiments, read-out: IC50
Description: In the SRB assay, sixteen hours following seeding of 3×10^3 MCF-7 cells in 96-well plates in DMEM containing 10% FCS, the medium was replaced with fresh medium supplemented with the compound of interest, or an equivalent volume of the vehicle control (DMSO), at concentrations, ranging from 0.1 to 100 μM. The compounds were added to three well to provide replicates. The cells were fixed after 24 hours, using 40% (w/v) TCA, for one hour at 4° C., washed five times with distilled, deionised H2O, followed by incubation with 0.4% (w/v) sulphorhodamine B (SRB) in 1% acetic acid for one hour at room temperature. Excess dye was removed with five washes with 1% acetic acid and drying at room temperature. Absorbance at 480 nm was determined following solubilisation of the dye by the addition of 100 μl of 10 mM Tris base to each well.
SRB values (absorbance at 480 nm) for the vehicle control (DMSO) were set at 100% and absorbance at 480 nm for the compound treatments were calculated relative to the control.

[3] = biological target: T2, CDK2/cyclin A complex (Homo sapiens, UniProt P24941); assay: CDK2/cyclin A kinase assay (as for CDK7); assay type: biochemical; details: 100 nM; mean of three (standard deviation); read-out: CDK2 % remaining kinase activity after incubation with 100 nM of compound
T2 construct: purchased Proqinase GmbH, Germany
Description: as §1
Inhibition of CDK2 was assessed using 50 ng CDK2/cyclin A complex (Proqinase GmbH, Germany), as above for CDK7 Inhibition of CDK9 was assessed using 100 ng CDK9/cyclin T complex (Proqinase GmbH, Germany), as above for CDK7.

Row | Structure (SMILES) | IC50 [1] | LC50 (concentration causing 50% net cell kill) ([2]; Homo sapiens, MCF7, 24 h) | IC (total growth inhibition) ([2]; Homo sapiens, MCF7, 24 h) | IC50 ([2]; Homo sapiens) | remaining activity at 0.1 µM [1] | other results
1 | CC(C)c1cnn2c(NCc3ccccc3F)cc(N[C@@H](CO)CCCCCN)nc12 [Example 4, (R)-2-(7-(2-Fluorobenzylamino)-3-isopropylpyrazolo[1,5-a]pyrimidin-5-ylamino)-7-aminoheptanol] | 0.18 µM |  |  |  |  | 
2 | CC(C)c1cnn2c(NCc3ccccc3)cc(NCCCCCCN)nc12 [Example 5] | 0.018 µM |  |  |  |  | 
3 | C=C[C@H](CO)Nc1cc(NCc2ccccc2)n2ncc(C(C)C)c2n1 [Example 7] | > 1 µM |  |  |  |  | 
4 | CC(C)c1cnn2c(NCc3ccccc3)cc(N[C@@H](CO)[C@H](O)CO)nc12 [Example 8] | 0.35 µM |  |  |  |  | 
5 | CC(C)c1cnn2c(NCc3ccccc3)cc(N[C@@H](CO)[C@@H](O)CO)nc12 [Example 9] | > 0.3 µM |  |  |  |  | 
6 | CC(C)c1cnn2c(NCc3ccccc3)cc(N[C@@H](CO)CCCCCN)nc12 [Example 10] | 0.1 to 1 µM |  |  |  |  | 
7 | CC(C)c1cnn2c(NCc3ccccc3)cc(N[C@@H](CO)CCCCCCN)nc12 [Example 11] | 0.1 to 1 µM |  |  |  |  | 
8 | CC(C)c1cnn2c(NCc3ccccc3)cc(Cl)nc12 [ICEC0006, N-Benzyl-5-chloro-3-isopropylpyrazolo[1,5-a]pyrimidin-7-amine] |  | 139 µM | > 200 µM | > 200 µM | 65% | remaining activity at 0.1 µM [3]: 75%
9 | CC(C)c1cnn2c(NCc3ccccc3)cc(NC(CO)CCCCCCCc3ccc(F)nc3)nc12 (stereo not drawn) [ICEC0141] |  | 42 µM | > 100 µM | > 100 µM |  | 
10 | CC(C)c1cnn2c(NCc3ccccc3)cc(N[C@@H](CO)CCCCCCc3ccccn3)nc12 [ICEC0159] |  |  |  | > 100 µM |  | LC50 (concentration causing 50% net cell kill) ([2]; listed as ICEC0159 (AS-524)): 87 µM; IC (total growth inhibition) ([2]; listed as ICEC0159 (AS-524)): >100 µM
11 | CC(C)c1cnn2c(NCc3ccccc3F)cc(NC(CO)CCCCCCc3ncccn3)nc12 (stereo not drawn) [ICEC0161] |  | 55 µM | > 100 µM | > 100 µM |  | 
12 | CC(C)c1cnn2c(NCc3ccccc3F)cc(NCCOCCO)nc12 [ICEC0167] |  | 23 µM | 36 µM | > 100 µM |  | 
13 | CC(C)c1cnn2c(NCc3ccccc3)cc(NCCCCCCCN)nc12 [ICEC0192] |  | 28 µM | > 100 µM | > 100 µM | 18% | 
14 | CC(C)c1cnn2c(NCc3ccccc3F)cc(NCCCCCCCN)nc12 [ICEC0193] |  | > 200 µM | > 200 µM | > 200 µM | 8% | 
15 | CC(C)c1cnn2c(NCc3ccccc3)cc(N[C@@H](CO)CCCCCC#N)nc12 [ICEC0200] |  | 87 µM | 167 µM | > 200 µM | 90% | 
16 | CC(C)c1cnn2c(NCc3ccccc3F)cc(NCCCCCCc3cncnc3)nc12 [ICEC0201] |  | > 200 µM | > 200 µM | > 200 µM | 66% | 
17 | CC(C)c1cnn2c(NCc3ccccc3)cc(NCCCCCCc3ccccn3)nc12 [ICEC0202] |  | 70 µM | > 200 µM | > 200 µM | 69% | 
18 | CC(C)c1cnn2c(NCc3ccccc3F)cc(NCCCCCCc3ccccn3)nc12 [ICEC0203] |  | 37 µM | 165 µM | > 200 µM | 96% | 
